{"source": "patent US6485742B1", "about": "“Process for producing coated preparation and its use” (BASF Aktiengesellschaft, priority 1999, dated 2002)", "experiment": "Change in appearance (browning) of filled gelatin capsules on storage", "type": "physicochemical", "conditions": "0.4 g in gelatin capsules, sealed glass bottle, 40° C. for 30 days", "method": "Each (0.4 g) of calcium L-ascorbate and the coated calcium L-ascorbate (70% L-ascorbate content) produced in Example 4 was filled in gelatin capsules (manufactured by Warner-Lambert Company, body volume 0.68 ml) and the capsules were placed in a transparent glass bottle. The bottle was sealed and stored in an incubator at 40° C. for 30 days to observe the change in appearances."}
{"substance": "calcium L-ascorbate", "values": [{"measurement": "Browning of filled gelatin capsules (change in appearance)", "result": "severe browning"}]}
